According to ChEMBL document CHEMBL4184320, “Optimization of Selective Mitogen-Activated Protein Kinase Interacting Kinases 1 and 2 Inhibitors for the Treatment of Blast Crisis Leukemia” (J Med Chem, 2018):
In brackets after ≈: the same amount, converted by molar mass.

Test system: not listed separately
Assay: Permeability of the compound by PAMPA
Assay type: ADME
Conditions: read-out: permeability

| Structure (SMILES) | Papp |
| --- | --- |
| CN1CCN(C(=O)c2ccc(-c3cn4c(-c5ccc(O)cc5)cnc4cn3)cc2)CC1 | 34.7 ×10⁻⁶ cm/s |
| CN(C)C1CCN(C(=O)c2ccc(-c3ccc4ncc(-c5ccc(C#N)cc5)n4n3)cc2)CC1 | 75.3 ×10⁻⁶ cm/s |
| CC(=O)N1CCN(C(=O)c2ccc(-c3cn4c(-c5ccc(O)cc5)cnc4cn3)cc2)CC1 | 2.82 ×10⁻⁶ cm/s |
| CN1CCN(C(=O)c2ccc(-c3cn4c(-c5ccc(C(F)(F)F)cc5)cnc4cn3)cc2)CC1 | 87.4 ×10⁻⁶ cm/s |

Second part, the molecule after the results:

| Papp | Structure (SMILES) |
| --- | --- |
| 76.2 ×10⁻⁶ cm/s | CN1CCN(C(=O)c2ccc(-c3cn4c(-c5ccc(C(F)F)cc5)cnc4cn3)cc2)CC1 |
| 50.2 ×10⁻⁶ cm/s | O=C(c1ccc(-c2cn3c(-c4ccc(O)cc4)cnc3cn2)cc1)N1CCOCC1 |

Test system: not listed separately
Assay: Cmax in CD-1 mouse at 5 mg/kg, po administered via gavage as single dose by LC-MS/MS analysis
Assay type: ADME, organism-based
Set-up: dose 5 mg/kg, route oral
Conditions: in vivo

| Cmax | Structure (SMILES) |
| --- | --- |
| 69 ng/mL | CN(C)C1CCN(C(=O)c2ccc(-c3ccc4ncc(-c5ccc(C#N)cc5)n4n3)cc2)CC1 |

Test system: not listed separately
Assay: Apparent permeability of the compound across apical side to basolateral side in human Caco2 cells by LC-MS/MS analysis
Assay type: ADME, cell-based
Conditions: Caco-2

| Papp A→B | Structure (SMILES) |
| --- | --- |
| 3 ×10⁻⁶ cm/s | CN(C)C1CCN(C(=O)c2ccc(-c3ccc4ncc(-c5ccc(C#N)cc5)n4n3)cc2)CC1 |

Test system: not listed separately
Assay: in vitro
Conditions: human, liver microsomes
Description: Half life in human liver microsomes at 1 uM in presence of NADPH by LC-MS/MS analysis

| half-life at 1 µM | Structure (SMILES) |
| --- | --- |
| 47 min | CN(C)C1CCN(C(=O)c2ccc(-c3ccc4ncc(-c5ccc(C#N)cc5)n4n3)cc2)CC1 |

Test system: not listed separately
Assay: in vitro
Conditions: mouse, liver microsomes
Description: Half life in mouse liver microsomes at 1 uM in presence of NADPH by LC-MS/MS analysis

| half-life at 1 µM | Structure (SMILES) |
| --- | --- |
| > 60 min | CN(C)C1CCN(C(=O)c2ccc(-c3ccc4ncc(-c5ccc(C#N)cc5)n4n3)cc2)CC1 |

Target: MAP kinase-interacting serine/threonine-protein kinase 2 (Homo sapiens, UniProt Q9HBH9)
Assay: not given
Conditions: not given

MAP kinase-interacting serine/threonine-protein kinase 2, sequence (Q9HBH9 whole entry): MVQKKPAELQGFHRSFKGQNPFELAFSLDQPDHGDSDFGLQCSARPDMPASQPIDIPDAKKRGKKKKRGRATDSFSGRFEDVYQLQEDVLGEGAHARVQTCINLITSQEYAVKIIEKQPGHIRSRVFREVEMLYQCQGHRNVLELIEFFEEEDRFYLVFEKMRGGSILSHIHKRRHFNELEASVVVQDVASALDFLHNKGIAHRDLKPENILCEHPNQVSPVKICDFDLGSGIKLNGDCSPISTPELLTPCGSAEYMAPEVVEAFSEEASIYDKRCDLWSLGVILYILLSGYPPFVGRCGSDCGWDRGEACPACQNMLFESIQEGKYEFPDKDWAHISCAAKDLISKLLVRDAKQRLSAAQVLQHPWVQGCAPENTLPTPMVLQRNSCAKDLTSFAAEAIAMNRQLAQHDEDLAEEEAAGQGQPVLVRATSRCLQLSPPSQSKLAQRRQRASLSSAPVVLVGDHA

| Structure (SMILES) | IC50 |
| --- | --- |
| CN1CCN(C(=O)c2ccc(-c3cn4c(-c5ccc(O)cc5)cnc4cn3)cc2)CC1 | 140 nM |
| CN(C)C1CCN(C(=O)c2ccc(-c3ccc4ncc(-c5ccc(C#N)cc5)n4n3)cc2)CC1 | 11 nM |
| CC(=O)N1CCN(C(=O)c2ccc(-c3cn4c(-c5ccc(O)cc5)cnc4cn3)cc2)CC1 | 160 nM |
| CN1CCN(C(=O)c2ccc(-c3cn4c(-c5ccc(C(F)(F)F)cc5)cnc4cn3)cc2)CC1 | 389 nM |

Further molecules by falling IC50, results first:

| IC50 | Structure (SMILES) |
| --- | --- |
| 336 nM | CN1CCN(C(=O)c2ccc(-c3cn4c(-c5ccc(C(F)F)cc5)cnc4cn3)cc2)CC1 |
| 113 nM | O=C(c1ccc(-c2cn3c(-c4ccc(O)cc4)cnc3cn2)cc1)N1CCOCC1 |

Target: MAP kinase-interacting serine/threonine-protein kinase 1/2 (Homo sapiens, UniProt Q9HBH9+Q9BUB5)
Assay: Inhibition of MNK1/2 in human HeLa cells assessed as decrease in eIF4E phosphorylation at Ser209 after 2 hrs by AlphaScreen assay
Assay type: cell-based
Conditions: not given

| Structure (SMILES) | IC50 |
| --- | --- |
| CN1CCN(C(=O)c2ccc(-c3cn4c(-c5ccc(O)cc5)cnc4cn3)cc2)CC1 | 189 nM |
| CN(C)C1CCN(C(=O)c2ccc(-c3ccc4ncc(-c5ccc(C#N)cc5)n4n3)cc2)CC1 | 431 nM |
| CC(=O)N1CCN(C(=O)c2ccc(-c3cn4c(-c5ccc(O)cc5)cnc4cn3)cc2)CC1 | > 2500 nM |
| CN1CCN(C(=O)c2ccc(-c3cn4c(-c5ccc(C(F)(F)F)cc5)cnc4cn3)cc2)CC1 | 1990 nM |

Second part, the molecule after the results:

| IC50 | Structure (SMILES) |
| --- | --- |
| 1630 nM | CN1CCN(C(=O)c2ccc(-c3cn4c(-c5ccc(C(F)F)cc5)cnc4cn3)cc2)CC1 |
| 130 nM | O=C(c1ccc(-c2cn3c(-c4ccc(O)cc4)cnc3cn2)cc1)N1CCOCC1 |

Test system: not listed separately
Assay: Thermodynamic solubility of the compound at pH 4 to 7.4 pION buffer after 18 hrs by UV spectrophotometric analysis
Assay type: physicochemical
Conditions: read-out: Therm_solubility

| Structure (SMILES) | solubility thermodynamic at 18 h |
| --- | --- |
| CN1CCN(C(=O)c2ccc(-c3cn4c(-c5ccc(O)cc5)cnc4cn3)cc2)CC1 | 114 µg/mL (≈ 276 µM) |
| CN(C)C1CCN(C(=O)c2ccc(-c3ccc4ncc(-c5ccc(C#N)cc5)n4n3)cc2)CC1 | 148 µg/mL (≈ 328 µM) |
| CC(=O)N1CCN(C(=O)c2ccc(-c3cn4c(-c5ccc(O)cc5)cnc4cn3)cc2)CC1 | 144 µg/mL (≈ 326 µM) |
| CN1CCN(C(=O)c2ccc(-c3cn4c(-c5ccc(C(F)(F)F)cc5)cnc4cn3)cc2)CC1 | 90.4 µg/mL (≈ 194 µM) |

Other lines, results leading:

| solubility thermodynamic at 18 h | Structure (SMILES) |
| --- | --- |
| 66.9 µg/mL (≈ 150 µM) | CN1CCN(C(=O)c2ccc(-c3cn4c(-c5ccc(C(F)F)cc5)cnc4cn3)cc2)CC1 |
| 11.5 µg/mL (≈ 28.7 µM) | O=C(c1ccc(-c2cn3c(-c4ccc(O)cc4)cnc3cn2)cc1)N1CCOCC1 |

Test system: not listed separately
Assay: Octanol-phosphate buffer partition coefficient, logD of compound at pH 7.4 by HPLC-UV analysis
Assay type: physicochemical
Conditions: not given

| Structure (SMILES) | logD |
| --- | --- |
| CN1CCN(C(=O)c2ccc(-c3cn4c(-c5ccc(O)cc5)cnc4cn3)cc2)CC1 | 2.25 |
| CN(C)C1CCN(C(=O)c2ccc(-c3ccc4ncc(-c5ccc(C#N)cc5)n4n3)cc2)CC1 | 2.19 |
| CC(=O)N1CCN(C(=O)c2ccc(-c3cn4c(-c5ccc(O)cc5)cnc4cn3)cc2)CC1 | 1.68 |
| CN1CCN(C(=O)c2ccc(-c3cn4c(-c5ccc(C(F)(F)F)cc5)cnc4cn3)cc2)CC1 | 2.95 |

More lines, now with the values ahead:

| logD | Structure (SMILES) |
| --- | --- |
| 2.55 | CN1CCN(C(=O)c2ccc(-c3cn4c(-c5ccc(C(F)F)cc5)cnc4cn3)cc2)CC1 |
| 2.21 | O=C(c1ccc(-c2cn3c(-c4ccc(O)cc4)cnc3cn2)cc1)N1CCOCC1 |

Test system: not listed separately
Assay: AUClast in CD-1 mouse at 5 mg/kg, po administered via gavage as single dose by LC-MS/MS analysis
Assay type: ADME, organism-based
Set-up: dose 5 mg/kg, time 0 - last, route oral
Conditions: in vivo

| AUC(0-t) | Structure (SMILES) |
| --- | --- |
| 347 ng·h/mL | CN(C)C1CCN(C(=O)c2ccc(-c3ccc4ncc(-c5ccc(C#N)cc5)n4n3)cc2)CC1 |

Target: MAP kinase-interacting serine/threonine-protein kinase 1 (Homo sapiens, UniProt Q9BUB5)
Assay: not given
Conditions: not given

MAP kinase-interacting serine/threonine-protein kinase 1, sequence (Q9BUB5 whole entry): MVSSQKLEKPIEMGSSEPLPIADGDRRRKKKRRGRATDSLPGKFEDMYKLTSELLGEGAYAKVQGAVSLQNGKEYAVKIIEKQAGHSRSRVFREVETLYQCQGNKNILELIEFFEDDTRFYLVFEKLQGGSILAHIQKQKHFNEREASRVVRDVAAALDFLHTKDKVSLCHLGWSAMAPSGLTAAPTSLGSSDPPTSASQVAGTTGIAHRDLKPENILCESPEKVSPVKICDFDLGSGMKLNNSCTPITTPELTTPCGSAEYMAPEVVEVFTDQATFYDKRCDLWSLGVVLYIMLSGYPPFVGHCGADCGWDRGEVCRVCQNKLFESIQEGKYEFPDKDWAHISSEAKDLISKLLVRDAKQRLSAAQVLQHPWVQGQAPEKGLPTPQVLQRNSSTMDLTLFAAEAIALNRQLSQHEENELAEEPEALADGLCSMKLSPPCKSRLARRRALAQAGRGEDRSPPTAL

| Structure (SMILES) | IC50 |
| --- | --- |
| CN1CCN(C(=O)c2ccc(-c3cn4c(-c5ccc(O)cc5)cnc4cn3)cc2)CC1 | 284 nM |
| CN(C)C1CCN(C(=O)c2ccc(-c3ccc4ncc(-c5ccc(C#N)cc5)n4n3)cc2)CC1 | 9 nM |
| CC(=O)N1CCN(C(=O)c2ccc(-c3cn4c(-c5ccc(O)cc5)cnc4cn3)cc2)CC1 | 224 nM |
| CN1CCN(C(=O)c2ccc(-c3cn4c(-c5ccc(C(F)(F)F)cc5)cnc4cn3)cc2)CC1 | 574 nM |

The next lines start with the values.

| IC50 | Structure (SMILES) |
| --- | --- |
| 369 nM | CN1CCN(C(=O)c2ccc(-c3cn4c(-c5ccc(C(F)F)cc5)cnc4cn3)cc2)CC1 |
| 125 nM | O=C(c1ccc(-c2cn3c(-c4ccc(O)cc4)cnc3cn2)cc1)N1CCOCC1 |

Test system: not listed separately
Assay: Efflux ratio of apparent permeability in human Caco2 cells by LC-MS/MS analysis
Assay type: ADME, cell-based
Conditions: Caco-2

| efflux ratio | Structure (SMILES) |
| --- | --- |
| 13.3 | CN(C)C1CCN(C(=O)c2ccc(-c3ccc4ncc(-c5ccc(C#N)cc5)n4n3)cc2)CC1 |
